According to patent US8377948B2, “Antitumor agents and methods of their use” (The Ohio State University Research Foundation, priority 2004, dated 2013):

Columns and labels:
PC-3 cells [1] = assay: MTT cell viability assay, PC-3 cells in 10% FBS medium; type: cell-based, human; conditions: RPMI 1640 with 10% FBS, means ± S.D. (n = 6)
Protocol: PC-3 (p53−/−) human androgen-nonresponsive prostate cancer cells were purchased from the American Type Tissue Collection (Manassas, Va.). Cells were cultured in RPMI 1640 medium (Gibco, Grand Island, N.Y.) supplemented with 10% fetal bovine serum (FBS; Gibco) at 37° C. in a humidified incubator containing 5% CO2.
(§1) Effect of the test agent on cell viability was assessed by the MTT {[3-(4,5-dimethylthiazol-2-yl)-2,5-diphenyl-2H-tetrazolium bromide]} assay in 96-well, flat-bottomed plates, in which 8,000 PC-3 or DU-145 cells/well were seeded. Cells were exposed to the test agent at the indicated concentrations, in six replicates, in 10% FBS-supplemented-RPMI-1640 medium at 37° C. in 5% CO2 for 48 hr. The medium was removed and replaced by 150 μL of 0.5 mg/mL of MTT in RPMI-1640 medium, and cells were incubated in the CO2 incubator at 37° C. for 2 h. Supernatants were removed from the wells, and the reduced MTT dye was solubilized with 200 μL/well DMSO. Absorbance was determined on a plate reader at 570 nm.
All compounds were evaluated for their ability to induce apoptotic death in human androgen-independent PC-3 prostate cancer in RPMI 1640 medium containing 10% fetal bovine serum (FBS). For representative compounds tested in DU-145 and LNCaP prostate cancer cells, the IC50 values for inhibiting cell proliferation were similar in these three cell lines irrespective of differences in androgen sensitivity, PTEN mutation, the functional status of p53 and Rb, and other biomarkers.

PC-3 cells [2] = assay: Cell viability / apoptotic death of PC-3 cells in 1% FBS-supplemented RPMI 1640 medium; type: cell-based, human; conditions: for IC50: 1% FBS-supplemented medium
Excerpt: (§2) (A) Left panel, Time- and dose-dependent effect of doxazosin on the cell viability of PC-3 cells in 1% FBS-supplemented RPMI 1640 medium. Values obtained from six replicates were plotted at each time point at the indicated concentrations of doxazosin. Right panel, induction of poly(ADP-ribose) polymerase (PARP) cleavage by doxazosin at the indicated concentrations after 48-h treatment. PARP proteolysis to the apoptosis-specific 85-kd fragment was monitored by Western blotting. Although there was no substantial accumulation of the 85-kd fragment, significant decrease in the level of native protein was noted. (B) Dose- and time-dependent (upper and lower panels, respectively) effects of doxazosin on Akt phosphorylation. (C) dose-dependent effect of doxazosin on ERK phosphorylation. PC-3 cells were treated with doxazosin at the indicated concentrations for 24 h or at 25 μM for the indicated times and lysed, and proteins in the resulting supernatants were resolved on SDS-PAGE and subjected to Western blot analysis. The phosphorylation status of Akt and ERKs was determined by immunoblotting with the respective phospho-specific antibodies. Unphosphorylated Akt and ERKs, as immunostained by anti-Akt and anti-ERK antibodies, were used as internal standards for the comparison of phospho-Akt and phospho-ERK levels among samples of different preparations. The blots are representative of three independent experiments.
(§3) (B) Western blot analysis of […] proteolysis and Akt dephosphorylation in PC-3 cells treated with the indicated concentrations of 33 for 48 h. (C) Effects of compound 44 on Akt phosphorylation in PC-3 cells treated with the indicated concentrations for 48 h.
as §1
Doxazosin induced apoptosis, in part, by facilitating Akt dephosphorylation. […] The potency of doxazosin in inducing apoptosis, however, was moderate.

Akt = assay: Western blot analysis of Akt phosphorylation in PC-3 cells; type: cell-based, human; conditions: for effect on Akt phosphorylation: Western blot
Excerpt: as §2, §3
PC-3 cells (1.5×106) treated with the test agent at the indicated concentrations in RPMI 1640 medium for 24 h were collected and sonicated. Protein concentrations of the lysates were determined by using a Bradford protein assay kit (Bio-Rad, Hercules, Calif.); equivalent amounts of proteins from each lysate were resolved in 10% SDS-polyacrylamide gel and then transferred onto Immobilon-nitrocellulose membranes (Millipore, Bellerica, MA) in a semidry transfer cell. The transblotted membrane was washed twice with Tris-buffered saline (TBS) containing 0.1% Tween 20 (TBST). After blocking with TBST containing 5% nonfat milk for 40 min, the membrane was incubated with the primary antibody (1:1000 dilution) in TBST-1% nonfat milk at 4° C. overnight. After treatment with the primary antibody, the membrane was washed three times with TBST for a total of 15 min, followed by goat anti-rabbit or anti-mouse IgG-horseradish peroxidase conjugates (diluted 1:3000) for 1 h at room temperature and wash three times with TBST for a total of 1 h. The immunoblots were visualized by enhanced chemiluminescence.

[3] = test system: sixty human tumor cells lines; assay: NCI Developmental Therapeutic Program screening against sixty human tumor cell lines; type: cell-based; conditions: for GI50: Homo sapiens, mean among sixty cell lines, read-out: mean GI50 (concentration resulting in 50% growth inhibition); for sensitivity of all tested cell lines to growth inhibitory effects: sixty cell lines
Excerpt: (§4) Further structural improvement was accomplished by replacing the methoxy side chains on the quinazoline ring with propoxy functions. Both 33 and 44 were effective in suppressing the proliferation of different prostate cancer cell lines at low μM levels. In addition, both agents were submitted to the Developmental Therapeutic Program (DTP) at the National Cancer Institute (NCI) for screening against sixty human tumor cells lines, representing leukemia, melanoma, and cancers of lung, colon, brain, ovary, breast, prostate, and kidney.

[4] = test system: different prostate cancer cell lines; assay: Proliferation of different prostate cancer cell lines; type: cell-based; conditions: at low μM levels
Excerpt: as §4

ERKs = assay: Western blot analysis of ERK phosphorylation in PC-3 cells; type: cell-based, human; conditions: even at 50 μM
Excerpt: (A) Left panel, Time- and dose-dependent effect of doxazosin on the cell viability of PC-3 cells in 1% FBS-supplemented RPMI 1640 medium. Values obtained from six replicates were plotted at each time point at the indicated concentrations of doxazosin. Right panel, induction of poly(ADP-ribose) polymerase (PARP) cleavage by doxazosin at the indicated concentrations after 48-h treatment. PARP proteolysis to the apoptosis-specific 85-kd fragment was monitored by Western blotting. Although there was no substantial accumulation of the 85-kd fragment, significant decrease in the level of native protein was noted. (B) Dose- and time-dependent (upper and lower panels, respectively) effects of doxazosin on Akt phosphorylation. (C) dose-dependent effect of doxazosin on ERK phosphorylation. […] The phosphorylation status of Akt and ERKs was determined by immunoblotting with the respective phospho-specific antibodies. […]
PC-3 cells (1.5×106) treated with the test agent at the indicated concentrations in RPMI 1640 medium for 24 h were collected and sonicated. Protein concentrations of the lysates were determined by using a Bradford protein assay kit (Bio-Rad, Hercules, Calif.); equivalent amounts of proteins from each lysate were resolved in 10% SDS-polyacrylamide gel and then transferred onto Immobilon-nitrocellulose membranes (Millipore, Bellerica, MA) in a semidry transfer cell. […]

immunoprecipitated Akt = immunoprecipitated Akt (Homo sapiens, UniProt P31749); assay: Kinase activity of immunoprecipitated Akt; type: biochemical
[5] = test system: PC-3 cells overexpressing Akt^T308D/S473D; assay: Viability of PC-3 cells transiently transfected with constitutively active Akt; type: cell-based, human; conditions: 25 μM, 1% FBS-supplemented medium, 24 h, versus empty pcDNA vector
Protocol: (A) Expression of Akt^T308D/S473D in PC-3 transient transfection. Western blot analysis used antibodies against Akt, and the HA tag. B) Viability of PC-3 cells overexpressing Akt^T308D/S473D vis-à-vis cells transfected with empty pcDNA vector (mock) in the presence of 25 μM doxazosin in 1% FBS-supplemented medium for 24 h. Values are means±S.D. (n=3).
The constitutively active Akt construct HA-PKB-T308D/S473D was kindly provided by Dr. Brain Hemmings (Friedrich Miescher Institute, Basel, Switzerland). PC-3 cells were seeded into T-75 flasks (1.5×10^6/flask). Aliquots containing 3 μg of each plasmid or a control pcDNA3.1(+) vector in 750 μl of Opti-MEM medium (Invitrogen-Life Technologies, Inc.,) was incubated with 9 μl of the FuGene 6 reagent (Roche Diagnostics Corp., Indianapolis, Ind.) for 15 min. Each flask was washed with Opti-MEM medium and then received the plasmid-FuGene 6 mixture and 4 ml of Opti-MEM medium. The flask was placed in a CO2 incubator for 4 h, and the transfection medium was replaced with 10% FBS-supplemented RPMI 1640. […]
To examine the causal relationship between Akt deactivation and doxazosin-mediated apoptosis, the protective effect of the transient transfection of constitutively active Akt, Akt^T308D/S473D (ref. 14), on drug-induced PC-3 cell death, was assessed. […]

serum proteins = conditions: cited from earlier work

Sequence of immunoprecipitated Akt (P31749 whole entry): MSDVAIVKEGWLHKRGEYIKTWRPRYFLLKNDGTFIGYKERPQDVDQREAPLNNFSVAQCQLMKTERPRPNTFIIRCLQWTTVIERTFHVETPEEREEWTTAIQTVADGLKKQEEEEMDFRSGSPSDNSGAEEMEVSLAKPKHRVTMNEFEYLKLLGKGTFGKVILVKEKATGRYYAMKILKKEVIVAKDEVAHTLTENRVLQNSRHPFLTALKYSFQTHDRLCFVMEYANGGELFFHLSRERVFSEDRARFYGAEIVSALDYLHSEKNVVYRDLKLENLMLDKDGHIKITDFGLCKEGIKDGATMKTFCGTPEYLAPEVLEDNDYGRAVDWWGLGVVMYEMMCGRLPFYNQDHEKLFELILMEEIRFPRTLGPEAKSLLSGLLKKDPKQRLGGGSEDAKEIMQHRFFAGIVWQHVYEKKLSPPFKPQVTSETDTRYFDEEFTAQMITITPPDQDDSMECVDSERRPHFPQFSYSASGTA

IC50 (PC-3 cells [1]; Homo sapiens, PC-3, 48 h) [µM] | SMILES | IC50 (PC-3 cells [1]; 48 h) [µM] | IC50 (PC-3 cells [2]; Homo sapiens, 48 h, read-out: IC50) [µM] | effect on Akt phosphorylation (Akt) | GI50 [3] [nM] | sensitivity of all tested cell lines to growth inhibitory effects [3] | suppressing the proliferation [4] | concentration at which dephosphorylation of phospho-Akt was evident (as low as) (Akt; 48 h, Western blot (FIG. 6C)) [µM] | apoptotic death (PC-3 cells [2]; 1% FBS-supplemented RPMI 1640, 10 μM) | drug-induced apoptosis (PC-3 cells [2]; 1% FBS-supplemented RPMI 1640, 25 μM and up) | IC50 (PC-3 cells [2]; read-out: IC50, apoptosis-inducing potency) [µM] | effect on phosphorylation status of ERKs (ERKs) | inhibitory effect on kinase activity of immunoprecipitated Akt (immunoprecipitated Akt) | protection by Akt^T308D/S473D against drug-induced apoptotic death [5] | binding affinity with serum proteins (serum proteins)
4 to 5 | COc1cc2nc(N3CCN(S(=O)(=O)c4ccc(-c5ccccc5)cc4)CC3)nc(N)c2cc1OC [Compound 33, 2-[4-(Biphenyl-4-sulfonyl)-piperazin-1-yl]-6,7-dimethoxy-quinazolin-4-ylamine] | 4.2 ± 0.8 | ~2.5 | inhibition of Akt activation | 2200 | high degree of sensitivity | effective |  |  |  |  |  |  |  | 
2.5 | CCCOc1cc2nc(N3CCN(S(=O)(=O)c4ccc(-c5ccccc5)cc4)CC3)nc(N)c2cc1OCCC [Compound 44, 2-[4-(Biphenyl-4-sulfonyl)-piperazin-1-yl]-6,7-dipropoxy-quinazolin-4-yl-amine] |  |  | dephosphorylation of phospho-Akt in a dose-dependent manner | 1500 | high degree of sensitivity | effective | 1 |  |  |  |  |  |  | 
 | COc1cc2nc(N3CCN(C(=O)C4COc5ccccc5O4)CC3)nc(N)c2cc1OC (stereo not shown) [Doxazosin] | 45 |  | Akt dephosphorylation in a dose- and time-dependent manner |  |  |  |  | no appreciable apoptotic death | susceptible to the drug-induced apoptosis | 20 | did not affect | no inhibitory effects | partial, yet significant, protection | high binding affinity
